Test results published in US20200123555A1, “USE OF MALONYLTRANSFERASE GENE” (Suntory Holdings Limited, priority 2017, published 2020).
Values belong to the compound of their own block, whether it stands above or below them.

Legend:
Dm3MaT3 [1] = test: Enzyme activity, His-tag purified Dm3MaT3 protein solution; assay type: biochemical, chrysanthemum; conditions: 10 μg Dm3MaT3 protein, 5 μl of 500 μg/ml substrate, malonyl-CoA, 20 minutes at 30° C., pH 7.0
Procedure: The Escherichia coli strain BL21 introduced with pET32a-Dm3MaT3 described in Example 1 was cultured using the Overnight Express Autoinduction System 1 (Novagen) in accordance with the protocol recommended by the manufacturer. The transformed Escherichia coli was cultured at 37° C. in 8 ml of prepared culture broth until the OD600 value reached 0.5 (approximately 4 hours). This Escherichia coli broth was used as pre-culture broth and added to 200 ml of culture broth followed by culturing overnight at 25° C.
After culturing overnight, the Escherichia coli broth was centrifuged (1000×g, 4° C., 10 minutes) and the harvested bacterial cells were suspended in 20 ml of extraction buffer (composition: 300 mM KCl, 50 mM KH2PO4, 5 mM imidazole (pH 8.0), 10 μM amidinophenylmethanesulfonyl fluoride hydrochloride (APMSF)) followed by disrupting the Escherichia coli by ultrasonication, centrifuging (1400×g, 4° C., 20 minutes) and recovering the supernatant. The supernatant was passed through a 0.45 μm and subjected to His-Tagged purification using Profinia (Bio-Rad) in accordance with the protocol recommended by the manufacturer. The resulting purified protein solution was centrifuged (7500×g, 4° C., 15 minutes) using Centrifugal Filters (Ultracel-10K, Amicon Ultra) and the concentrated protein solution was used as “Dm3MaT3 protein solution”. The Avanti HP-26XP (rotor: JA-2) (Beckman Coulter) was used for centrifugation.
A reaction solution, obtained by mixing 30 μl of Dm3MaT3 protein solution (10 μg), 5 μl of 1 mg/ml malonyl-CoA, 5 μl of 1 M KPB (pH 7.0), 5 μl of 500 μg/ml luteolin 7-glucoside (dissolved in a 50% aqueous acetonitrile solution containing 0.1% TFA) and adjusting to a volume of 100 μl with water on ice, was held for 20 minutes at 30° C. Subsequently, 100 μl of stop buffer (90% aqueous acetonitrile solution containing 0.1% TFA) were added to stop the reaction followed by analyzing the reaction solution by high-performance liquid chromatography (Prominence, Shimadzu Corp.). Flavone was detected at 330 nm using the Shimadzu PDA SPD-M20A for the detector. […]

Dm3MaT3 [2] = test: Malonyl transfer activity of flower petal crude enzyme solution from genetically engineered rose introduced with Dm3MaT3 gene; assay type: biochemical; conditions: 2.5 μl of 1 mM apigenin, malonyl-CoA, 20 minutes at 30° C.; genetically engineered rose petals
Source text: In order to confirm that the Dm3MaT3 gene of the present invention encodes a protein having activity that transfers a malonyl group to position 6 of the glucose at position 7 of flavone 7-glucoside in plants, a binary vector pSPB7136 was constructed to express Dm3MaT3 in plants (see FIG. 8) and subsequently introduced into a rose (variety: Ocean Song). pBINPLUS (Van Engel et al., Transgenic Research 4, 288) was used for the basic skeleton, E1235S promoter (Mitsuhara et al., (1996) Plant Cell Physiol., 37, p. 49) was used for the promoter expressing Dm3MaT3 gene, and HSP terminator (Plant Cell Physiol. (2010) 51, 328-332) was used for the terminator in pSPB7136.
A crude enzyme solution was prepared from the petals of a rose strain in which was synthesized the transcription product of full-length cDNA Dm3MaT3 followed by an evaluation of the presence or absence of activity transferring a malonyl group to position 6 of the glucose at position 7 of flavone 7-glucoside. […]
A reaction solution, obtained by mixing 20 μl of the flower petal crude enzyme solution, 5 μl of 1 mg/ml malonyl-CoA, 5 μl of 1 M KPB (pH 7.0) and 2.5 μl of 1 mM apigenin (dissolved in 50% aqueous acetonitrile solution containing 0.1% TFA) and adjusting to a volume of 100 μl with water on ice, was held for 20 minutes at 30° C. […] Flavone was detected at 330 nm using the Shimadzu PDA SPD-M20A for the detector. […]

Dm3MaT3 [3] = test: Enzyme activity, protein solution crudely extracted from Escherichia coli expressing Dm3MaT3; assay type: biochemical, chrysanthemum; conditions: substrate with malonyl-CoA
Procedure: The Shim-Pack ODS 150 mm×4.6 mm column (Shimadzu Corp.) was used for the column. […] The flow rate was 0.6 ml/min.

Dm3MaT1 = test: Enzyme activity, protein solution crudely extracted from Escherichia coli expressing Dm3MaT1; assay type: biochemical, chrysanthemum; conditions: substrate with malonyl-CoA, 20 minutes at 30° C., pH 7.0, detection 330 nm
Dm3MaT2 = test: Enzyme activity, protein solution crudely extracted from Escherichia coli expressing Dm3MaT2; assay type: biochemical, chrysanthemum; conditions: substrate with malonyl-CoA, 20 minutes at 30° C., pH 7.0, detection 330 nm

Compound: OC[C@H]1O[C@@H](Oc2cc3c(O)cc(O)cc3[o+]c2-c2ccc(O)c(O)c2)[C@H](O)[C@@H](O)[C@@H]1O [cyanidin 3-glucoside]
- amount of cyanidin 3-glucoside consumed in comparison with Dm3MaT1 (Dm3MaT3 [3]; detection 520 nm): clearly less
- peak corresponding to cyanidin 3-malonylglucoside (HPLC) (Dm3MaT3 [3]; detection 520 nm): detected

Compound: O=c1cc(-c2ccc(O[C@@H]3O[C@H](CO)[C@@H](O)[C@H](O)[C@H]3O)c(O)c2)oc2cc(O)cc(O)c12 [luteolin 4′-glucoside]
- reaction rate (percentage of substrate converted) (Dm3MaT3 [1]): 34.81%

Compound: O=c1cc(-c2ccc(O)c(O)c2)oc2cc(O[C@@H]3O[C@H](CO)[C@@H](O)[C@H](O)[C@H]3O)cc(O)c12 [luteolin 7-glucoside]
- peak corresponding to luteolin 7-malonylglucoside (HPLC) (Dm3MaT3 [3]; 20 minutes at 30° C., pH 7.0, detection 330 nm): detected
- peak corresponding to luteolin 7-malonylglucoside (HPLC) (Dm3MaT1): not detected
- reaction rate (percentage of substrate converted) (Dm3MaT3 [1]): 81.13%
- peak corresponding to luteolin 7-malonylglucoside (HPLC) (Dm3MaT2): not detected

Further lines, results first:

- reaction rate (percentage of substrate converted) (Dm3MaT3 [1]): 85.80%
Compound: O=c1cc(-c2ccc(O)cc2)oc2cc(O[C@@H]3O[C@H](CO)[C@@H](O)[C@H](O)[C@H]3O)cc(O)c12 [apigenin 7-glucoside]

- peak corresponding to 7-malonylglucoside, share of the apigenin compounds in the enzyme reaction solution (Dm3MaT3 [2]): 2.04%
Compound: O=c1cc(-c2ccc(O)cc2)oc2cc(O)cc(O)c12 [apigenin]
